How the values were obtained:
Type in all cases: in vivo
[1] = system: bentgrass (Agrostis palustris) variety Crenshaw; test: Turfgrass colour assessment, Example 1; settings: 43 DA-A (17 DA-B)
Protocol: (§1) Compositions comprising methyl jasmonate (as a SL formulation, purchased from Fischer), trinexapac-ethyl (in the form of Primo MAXX®), or both (as a tank mix) were tested at various rates for effects on bentgrass (Agrostis palustris) variety Crenshaw. All treatments included the adjuvant NIS, at 0.25% v/v. Assessments of percentage injury to the turfgrass, and turfgrass quality (on a standard scale of 1 to 9) were made at various time intervals after treatment.

[2] = system: bentgrass (Agrostis palustris) variety A1; test: Colour (greenness) assessment, Example 2; settings: TXP 0 g ai/ha
[3] = system: bentgrass (Agrostis palustris) variety Crenshaw; test: Turfgrass quality assessment, Example 1
Protocol: as §1

[4] = system: bentgrass (Agrostis palustris) variety A1; test: Colour (greenness) assessment, Example 2; settings: jasmonic acid 0 g ai/ha
Protocol: Compositions comprising methyl jasmonate (purchased from Aldrich), trinexapac-ethyl (in the form of Primo MAXX® 120EC), or both (as a tank mix) were tested at various rates for effects on bentgrass (Agrostis palustris) variety A1. Assessments of greenness were made at 5 and 12 days after the second treatment.

[5] = system: bentgrass (Agrostis palustris) variety Crenshaw; test: Percentage injury to the turfgrass, Example 1; settings: TXP 96 g ai/ha, methyl jasmonate 0 g ai/ha
Protocol: Compositions comprising methyl jasmonate (as a SL formulation, purchased from Fischer), trinexapac-ethyl (in the form of Primo MAXX®), or both (as a tank mix) were tested at various rates for effects on bentgrass (Agrostis palustris) variety Crenshaw. All treatments included the adjuvant NIS, at 0.25% v/v.

SMILES: CC/C=C\C[C@H]1C(=O)CC[C@@H]1CC(=O)OC [Methyl jasmonate only, methyl (1R,2R)-3-Oxo-2-(2Z)-2-pentenyl-cyclopentaneacetate]
- Colour (scale: 1 poor to 9 excellent) ([1]; TXP 0 g ai/ha, methyl jasmonate 168 g ai/ha): 7.2
- Colour (scale: 1 poor to 9 excellent) ([1]; TXP 0 g ai/ha, methyl jasmonate 336 g ai/ha): 7.2
- Colour (scale: 1 poor to 9 excellent) ([1]; TXP 0 g ai/ha, methyl jasmonate 670 g ai/ha): 7.0
- Greenness (scale of 1-10 by comparison with the untreated control) ([2]; jasmonic acid 168 g ai/ha, 5 DA-B): 0.0
- Greenness (scale of 1-10 by comparison with the untreated control) ([2]; jasmonic acid 168 g ai/ha, 12 DA-B): 0.5
- Greenness (scale of 1-10 by comparison with the untreated control) ([2]; jasmonic acid 336 g ai/ha, 5 DA-B): 0.0
- Greenness (scale of 1-10 by comparison with the untreated control) ([2]; jasmonic acid 336 g ai/ha, 12 DA-B): 0.0
- Greenness (scale of 1-10 by comparison with the untreated control) ([2]; jasmonic acid 672 g ai/ha, 5 DA-B): 0.0
- Greenness (scale of 1-10 by comparison with the untreated control) ([2]; jasmonic acid 672 g ai/ha, 12 DA-B): 0.0
- Quality (scale: 1 poor to 9 excellent) ([3]; TXP 0 g ai/ha, methyl jasmonate 168 g ai/ha, 33 DA-A (7 DA-B)): 7.1
- Quality (scale: 1 poor to 9 excellent) ([3]; TXP 0 g ai/ha, methyl jasmonate 168 g ai/ha, 43 DA-A (17 DA-B)): 7.2
- Quality (scale: 1 poor to 9 excellent) ([3]; TXP 0 g ai/ha, methyl jasmonate 168 g ai/ha, 56 DA-A (30 DA-B)): 7.0
- Quality (scale: 1 poor to 9 excellent) ([3]; TXP 0 g ai/ha, methyl jasmonate 336 g ai/ha, 33 DA-A (7 DA-B)): 7.0
- Quality (scale: 1 poor to 9 excellent) ([3]; TXP 0 g ai/ha, methyl jasmonate 336 g ai/ha, 43 DA-A (17 DA-B)): 7.2
- Quality (scale: 1 poor to 9 excellent) ([3]; TXP 0 g ai/ha, methyl jasmonate 336 g ai/ha, 56 DA-A (30 DA-B)): 7.0
- Quality (scale: 1 poor to 9 excellent) ([3]; TXP 0 g ai/ha, methyl jasmonate 670 g ai/ha, 33 DA-A (7 DA-B)): 6.9
- Quality (scale: 1 poor to 9 excellent) ([3]; TXP 0 g ai/ha, methyl jasmonate 670 g ai/ha, 43 DA-A (17 DA-B)): 7.0
- Quality (scale: 1 poor to 9 excellent) ([3]; TXP 0 g ai/ha, methyl jasmonate 670 g ai/ha, 56 DA-A (30 DA-B)): 7.0

SMILES: CCOC(=O)C1CC(=O)C(=C(O)C2CC2)C(=O)C1 (stereo not shown) [Trinexapac-ethyl only, trinexapac-ethyl]
- Colour (scale: 1 poor to 9 excellent) ([1]; TXP 96 g ai/ha, methyl jasmonate 0 g ai/ha): 7.3
- Greenness (scale of 1-10 by comparison with the untreated control) ([4]; TXP 57 g ai/ha, 5 DA-B): 0.0
- Greenness (scale of 1-10 by comparison with the untreated control) ([4]; TXP 57 g ai/ha, 12 DA-B): 0.0
- Greenness (scale of 1-10 by comparison with the untreated control) ([4]; TXP 96 g ai/ha, 5 DA-B): 3.5
- Greenness (scale of 1-10 by comparison with the untreated control) ([4]; TXP 96 g ai/ha, 12 DA-B): 3.5
- Injury (%) ([5]; 8 DA-A): 5%
- Injury (%) ([5]; 14 DA-A): 7%
- Quality (scale: 1 poor to 9 excellent) ([3]; TXP 96 g ai/ha, methyl jasmonate 0 g ai/ha, 33 DA-A (7 DA-B)): 7.2
- Quality (scale: 1 poor to 9 excellent) ([3]; TXP 96 g ai/ha, methyl jasmonate 0 g ai/ha, 43 DA-A (17 DA-B)): 7.4
- Quality (scale: 1 poor to 9 excellent) ([3]; TXP 96 g ai/ha, methyl jasmonate 0 g ai/ha, 56 DA-A (30 DA-B)): 7.0

Reference: patent publication US8470736B2, “Turfgrass quality” (Syngenta Crop Protection, LLC, priority 2008, dated 2013)
